Entries after “also recorded” stand apart in the source; their conditions may differ. Positions of bridges follow the written chain, without caps; N, C: chain ends. No end group written: not given here.
How the values were obtained:
patient-derived GSCs [1] = assay: Secondary neurosphere/tumoursphere formation, Sox2/Nestin expression and trypan blue viability of GSCs; assay type: cell-based, human; settings: mitogen-free medium plus APJ agonist; ML233 1 mmol·l^1, 4 days (FIG. 13)
Akt/mTor pathway = assay: Western blot of Akt/mTor pathway activation (pAkt, pS6) in GSCs; assay type: cell-based, human
Experimental: FIG. 4. […] Scale bar: 40 μm. Data represent mean+sem on n=3 experiments.
(§1) FIG. 9. […] GSCs were pre-treated with APJ antagonist (MM54, 2 μmol·l^1) 45 min prior EC-CM or Apelin (Apin, 1 μmol·l^−1, 7 min) and protein lysates were analysed by western-blots with the indicated antibodies. Controls include GSC grown in complete (NS) and mitogen-free media (MF). b. STAT3 reporter activity was measured in mock, APJ, Gp130 and APJ+Gp130-transfected HEK-293T and exposed for 6 h to MF and Apin, together with either DMSO or MM54. c. GSCs were exposed to NS, EC-CM and Apin in the presence of DMSO or MM54. Tumoursphere formation per field of view (TS/FOV) was also quantified. d. Nude mice were xenografted with GSCs and bi-weekly intraperitoneal administration of vehicle (PBS) or APJ antagonist (MM54, 20 μmol·l^−1) started at week 4 (arrow). Tumour volume was measured weekly for 7 weeks. e. Frozen sections from GSC-xenografted tumours treated either with vehicle or MM54 were stained for blood vessels (PECAM), together with either Ki67 (proliferation marker or Nestin and nuclei. Percentage of dead cells was estimated by TUNEL. Quantification of both staining is shown. Data represent mean+sem on n=3 experiments. Two-way ANOVA: *P<0.05; **P<0.01.

patient-derived GSCs [2] = assay: Secondary neurosphere/tumoursphere formation, Sox2/Nestin expression and trypan blue viability of GSCs; assay type: cell-based, human
Experimental: as §1
FIG. 11. […] Apelin secretion was measured by EIA in positive templates (C+), mitogen-free media (MF), human brain endothelial cell (EC) and GSC conditioned media (CM). RT-PCR for Apelin and Actin is also shown for EC and GSC. b. Confocal analysis of Nestin (green), Sox2 (red) and nuclei (DAPI, blue) in GSC grown in complete media (NS), in MF, in EC-CM or MF containing only recombinant Apelin (Apin, 1 μmol·l^−1). Scale bar: 40 um. c-d. GSCs #1-16 were cultured in MF or Apin. Quantification of tumourspheres per field of view (TS/FOV) (c) and trypan blue exclusion quantification (Viable cells %) (d) was performed. e. EC received non-silencing RNA (siC) or Apin targeting siRNA (siApin). Apin extinction was checked by RT-PCR and enzyme immunoassay. f. GSCs were cultured with siC and siApin EC-CM, as prepared in (e). Confocal analysis was performed on Nestin (green), Sox2 (red) and DAPI (blue) co-staining. Scale bar: 40 μm. g-h. siC or siApin EC-CM treated GSCs were processed as in (c, d). i-k. GSCs were cultured with NS, MF, siC EC-CM and siApinEC-CM alone or plus Apin. Phase pictures are shown (i) Scale bar: 25 μm, TS/FOV and viable cells were also analysed (j, k). Data represent mean+sem on n=3 experiments. T-test: *P<0.05; **P<0.01; ***P<0.001.
GSCs were dissociated by up-and-down pipetting and cultured in a 48-well plate format. […] NS counts were blindly performed on five random fields of view (fov) and the mean of neurosphere/fov was calculated from 3 independent experiments. Statistical analyses were performed using 2-way Student's test (Excel Microsoft Office).

STAT3 [3] = settings: recombinant Apelin 1 μM
Experimental: A. Western-blot analysis for pY-STAT3, pS-STAT3 and Total STAT3 in GSC#1 treated with complete media (NS34), deprived medium (SF), endothelial cell-conditioned media (EC-CM), or SF supplemented with Apelin (1 μM), for the indicated times. B. GSC#1 received non-silencing siRNA (sic) or siRNA targeting APJ. GSC#1 were treated with EC-CM and analyzed by western-blots using the indicated antibodies (upper panel). Alternatively, GSC#1 received EC-CM prepared from non-silencing shRNA (shC) or shRNA targeting Apelin (lower panel). […] GSC#1 received non-silencing siRNA (siC) or siRNA targeting GP130, were stimulated with EC-CM three days later, and protein lysates were analyzed by western-blots, using the indicated antibodies. D. GSC#1 were pre-treated with GP130-blocking antibody 45 min prior EC-CM or Apelin stimulation and protein lysates were analyzed by western-blots. E. Neurosphere assay was conducted in GSC#1 treated with siRNA as in (C) or with GP130-blocking antibody as in (D).
Proteins were collected in TNT buffer (10 mM Tris-HCl pH 7.5, 150 mM NaCl, 1% Triton X100, 2 mM EDTA) plus protease inhibitors (Sigma), 200 mM NaF and 0.1 mM Na3VO4. Equal amounts of proteins (microBCA kit, Pierce) were separated with 4-12% Nupage gels (Invitrogen) and transferred onto PVDF membranes (Thermo Fisher Scientific). […]

STAT3 [4] = assay: STAT3 luciferase reporter assay in HEK-293T co-expressing APJ and Gp130; assay type: cell-based, human; settings: HEK-293T co-expressing APJ and Gp130, Apelin 6 h
Experimental: FIG. 9. Pharmacological inhibition of APJ impairs tumour growth. a. GSCs were pre-treated with APJ antagonist (MM54, 2 μmol·l^1) 45 min prior EC-CM or Apelin (Apin, 1 μmol·l^−1, 7 min) and protein lysates were analysed by western-blots with the indicated antibodies. Controls include GSC grown in complete (NS) and mitogen-free media (MF). b. STAT3 reporter activity was measured in mock, APJ, Gp130 and APJ+Gp130-transfected HEK-293T and exposed for 6 h to MF and Apin, together with either DMSO or MM54. c. GSCs were exposed to NS, EC-CM and Apin in the presence of DMSO or MM54. Tumoursphere formation per field of view (TS/FOV) was also quantified. d. […] Tumour volume was measured weekly for 7 weeks. e. Frozen sections from GSC-xenografted tumours treated either with vehicle or MM54 were stained for blood vessels (PECAM), together with either Ki67 (proliferation marker or Nestin and nuclei. Percentage of dead cells was estimated by TUNEL. Quantification of both staining is shown. Data represent mean+sem on n=3 experiments. Two-way ANOVA: *P<0.05; **P<0.01.
HEK-293T cells were co-transfected with HA-APJ, GP130, STAT3 Luciferase Reporter Vector (Affymetrix) and Renilla (Promega). […] Then, cells were lysed and STAT3 luciferase activity was measured using the Dual-Luciferase Reporter Assay (Promega). […]

[5] = system: human GSCs implanted into immunocompromised mouse flanks; assay: Subcutaneous GSC xenograft in nude mice, tumour growth and histology; assay type: in vivo
Experimental: FIG. 9. Pharmacological inhibition of APJ impairs tumour growth. a. GSCs were pre-treated with APJ antagonist (MM54, 2 μmol·l^1) 45 min prior EC-CM or Apelin (Apin, 1 μmol·l^−1, 7 min) and protein lysates were analysed by western-blots with the indicated antibodies. Controls include GSC grown in complete (NS) and mitogen-free media (MF). b. STAT3 reporter activity was measured in mock, APJ, Gp130 and APJ+Gp130-transfected HEK-293T and exposed for 6 h to MF and Apin, together with either DMSO or MM54. c. GSCs were exposed to NS, EC-CM and Apin in the presence of DMSO or MM54. Tumoursphere formation per field of view (TS/FOV) was also quantified. d. Nude mice were xenografted with GSCs and bi-weekly intraperitoneal administration of vehicle (PBS) or APJ antagonist (MM54, 20 μmol·l^−1) started at week 4 (arrow). Tumour volume was measured weekly for 7 weeks. e. Frozen sections from GSC-xenografted tumours treated either with vehicle or MM54 were stained for blood vessels (PECAM), together with either Ki67 (proliferation marker or Nestin and nuclei. Percentage of dead cells was estimated by TUNEL. Quantification of both staining is shown. Data represent mean+sem on n=3 experiments. Two-way ANOVA: *P<0.05; **P<0.01.
All animal studies were carried out according to French Ministry approved protocols (agreement number #00754.02), in compliance with the European Convention for the Protection of Vertebrate Animals used for Experimental and other Scientific Purposes (ETS 123). Six weeks old females BALB/c nude mice (Janvier) were subcutaneously injected with 1*10^6 cells in 100 μl 1:1 PBS and growth factors-free matrigel (Corning). For tumour initiation (FIG. 9), mice were examined weekly in the search for tumours and sacrificed 7 weeks after implantation. For pharmacological studies (FIG. 6), mice were treated twice per week with MNI54 or vehicle (DMSO) diluted in PBS (100 μl) (intraperitoneal injection for 7 weeks), once tumours were detected (4 weeks post-implantation).
Upon sacrifice, tumours were extracted, embedded in OCT (Tissue Tek) in biomoulds, frozen by immersion in dry ice-chilled isopentane for 1 min, and stored at −80° C. for further analysis.
For immunostaining, embedded OCT-tumours were cut in 7 μm sections using a CM350S Leica cryostat (Histology platform, Institut Cochin, Paris). […]
A minimum of 3 tumour sections per condition was used, with at least 5 different fields of view (fov) each. For blood vessel surface analysis, PECAM pixel intensity was calculated in each fov and an average+sem of the total fov was represented. Cell proliferation was assessed through the percentage of Ki67-positive cells normalized to the total cell number of cells in DAPI. Nestin positive cells were counted per fov.

[6] = system: mice intracranially implanted with GSCs; assay: Orthotopic (intracranial) GSC #9 implantation in nude mice; assay type: in vivo
Experimental: FIG. 15. Anti-tumor effect of APJ inhibition. Nude mice were implanted with GSC #9 orthotopically (10^5 cells) and treated tri-weekly with intraperitoneal injection of vehicle (PBS) or APJ antagonist (MM54, 20 μmol·l^−, 4 mg/kg) starting at day 16 (arrow). Appearance of neurological symptoms (a) and weight at sacrifice (b) were monitored. Kaplan-Meier survival curve of GSC #9-bearing mice is shown (c). Data represent mean+sem of n=3 experiments. Two-way ANOVA: *P<0.05; **P<0.01.

[7] = Toxicity observation in MM54-treated mice (body weight, heart/body weight ratio, heart anatomy); assay type: in vivo; settings: ectopic tumour-bearing mice, bi-weekly over 7 weeks; sham-operated female nude mice
Experimental: FIG. 16. […] Gain weight was measured in ectopic tumour bearing mice that received bi-weekly treatment over 7 weeks. b-d. Female nude mice underwent intracranial implantation of PBS (sham surgery) and then received DMSO and MM54 17 days after PBS implantation. Body weight was monitored long the experiment (a). Heart/body weight ratios were calculated at the day of sacrifice (c). General anatomy of hearts from DMSO and MM54-treated mice using the Masson Trichrome staining (d).

[8] = intracranial GSC #9, intraperitoneal MM54 thrice a week (4 mg/kg) from day 16

With CC1=CC(=O)C(C2CCCCC2)=C/C1=N\OS(=O)(=O)c1ccccc1 [ML233] as the molecule, how does the GSC survival (patient-derived GSCs [1]) read?
Its GSC survival is “promote GSC survival; also recorded: promotes GSC survival through APJ/GP130”.

Which results are given for Apelin?
Activation of the Akt/mTor pathway in GSCs (Akt, S6 phosphorylation) (Akt/mTor pathway; recombinant Apelin 1 μM, no other exogenous mitogen): able to activate this pathway in a similar extend than EC-CM; also recorded: triggered the activation of the mTor signalling cascade; EC-CM-sustained self-renewal and viability of GSCs (patient-derived GSCs [2]; exogenous Apelin added into Apelin-depleted endothelial cell-derived media): restored; GSC self-renewal (secondary neurosphere formation and Sox2/Nestin expression) (patient-derived GSCs [2]; recombinant Apelin 1 μM in mitogen-free media, panel of 16 patient-derived GSCs): sufficient to support self-renewal; also recorded: maintained; Mitogen deprivation-induced cell death (patient-derived GSCs [2]; recombinant Apelin in mitogen-free media, trypan blue exclusion): hindered; Activation of STAT3 signaling in GSCs (STAT3 [3]): able to activate this signaling pathway; GSC survival (patient-derived GSCs [1]): has an effect on GSCs survival

Which GSC survival (patient-derived GSCs [1]) does the source give for Apelin 13 here?
The GSC survival was “promote GSC survival”.

For “Apelin 36: 36 amino acid peptide corresponding to the sequence 42-77 of the Apelin proprotein; APJ agonist (LVQPRGSRNGPGPWQGGRRKFRRQRPRLSHKGPMPF; homo sapiens; Apelin 36 aa - homo sapiens)”, which GSC survival (patient-derived GSCs [1]) is on record?
The GSC survival was “promote GSC survival”.

Which “Inhibition of EC-CM- and Apelin-induced Akt/mTor activation in GSCs” value (Akt/mTor pathway; pre-treatment 45 min prior EC-CM or Apelin (1 μmol·l^−1, 7 min), MM54 2 μmol·l^−1) does the source give for “cyclo(1-6)CRPRLC-KH-cyclo(9-14)CRPRLC (CRPRLCKHCRPRLC; bridge 1-6, 9-14) [MM54, APJ antagonist (Macaluso N J et al., 2011), supplied by Dr. Robert Glenn]” here?
The value was “blocks; also recorded: alleviated”.

And the “Inhibition of Apelin-mediated STAT3 activation (STAT3 reporter activity)” value (STAT3 [4])?
The value was “reduced”.

And the “Inhibition of Apelin-mediated STAT3 activation (STAT3 reporter activity)” value (STAT3 [4]; listed as pharmacological antagonist of APJ)?
The value was “blocked”.

And the “Neurosphere number and size, with Sox2/Nestin” value (patient-derived GSCs [2]; GSCs cultured with EC-CM)?
The value was “dramatically decreased”.

And the “Endothelial Apelin-dependent GSC self-renewal and survival (tumoursphere formation)” value (patient-derived GSCs [2]; GSCs exposed to EC-CM or Apelin in presence of DMSO or MM54)?
Its value is “blocks; also recorded: impaired”.

What about the “GSC number in residual tumours, as scored with Nestin” value ([5]; bi-weekly intraperitoneal MM54) of the same molecule?
The value was “decreased”.

And the “Overall cell proliferation (Ki67) and viability (TUNEL) in residual tumours” value ([5]; bi-weekly intraperitoneal MM54)?
Its value is “decreased”.

And the “Tumour vascularisation (PECAM)” value ([5]; bi-weekly intraperitoneal MM54)?
The value was “reduction”.

And the “Tumour growth (tumour volume)” value ([5]; bi-weekly intraperitoneal MM54 (20 μmol·l^−1) from week 4, 7 weeks)?
Its value is “capable of in vivo inhibiting tumor growth once initiated; also recorded: restrain tumor growth and expansion; also recorded: strongly hindered”.

What about the Neurological symptoms ([6]; intracranial GSC #9, intraperitoneal MM54 thrice a week (20 μmol·l^−, 4 mg/kg) from day 16) of the same molecule?
Its Neurological symptoms is “significantly abolish”.

What about the “Loss weight associated with tumour progression” value [6, 8] of the same molecule?
The value was “rescue”.

What about the “Overall survival of tumour-bearing mice (Kaplan-Meier)” value [6, 8] of the same molecule?
The value was “dramatically increased”.

What about the Tumour size ([6]; intracranial GSCs, intraperitoneal MM54 thrice a week) of the same molecule?
Its Tumour size is “reduced”.

And the “Toxic effects of treatment” value [7]?
Its value is “does not exert any obvious toxic effects”.

Reference: patent publication US10247722B2, “Use of compounds inhibiting apelin / APJ / GP130 signaling for treating cancer” (Centre National de la Recherche Scientifique (CNRS), priority 2014, dated 2019)
